The nature of data set [1]: Solubility of organic acceptor compound in tetrahydrofuran (solvent of coating solution). As to conditions: for Solubility / Solubility/THF [% by weight]: THF; for Solubility/THF [% by weight]: organic acceptor; for Solubility/THF [% by weight] of organic acceptor: in THF. The class given is physicochemical. From the text: Specific examples of the organic acceptor compound are shown below.

Data set [2] is described as follows: Reduction potential of organic acceptor compound by cyclic voltammetry. The class given is physicochemical. As to conditions: for Redox potential / Reduction potential [V]: organic acceptor; for Reduction Potential: to reference electrode (Ag+/Ag), cyclic voltammetry in dichloromethane; for Reduction potential [V] of organic acceptor: organic acceptor added when producing the phthalocyanine crystal, reference electrode (Ag+/Ag). The method, then:
The reduction potential of the organic acceptor compound was determined by a cyclic voltammetry. The measurement conditions are shown below.
Work electrode: glassy carbon
Counter electrode: platinum
Reference electrode: silver/silver nitrate (0.1 mol/1AgNO3-acetonitrile solution)
Electrolyte: tetra-n-butylammonium perchlorate (0.1 mol)
Specimen: acceptor compound (0.001 mol)
Solvent: dichloromethane (1 L)

`O=C1OC(=O)c2ccccc21` [AC-5, reference compound] came in with a Solubility in data set [1] of 5 % by weight. In addition, the “Solubility/THF [% by weight]” value in data set [1] (Table 4) and in data set [1] (Table 6) was 5 % by weight each time. Further, the Redox potential in data set [2] (Table 4) and in data set [2] (Table 6) was −1.53 throughout. For the same compound, the “Reduction Potential” value in data set [2] is reported as −1.53 V.

Take `O=C1C(Oc2ccccc2)=C(Oc2ccccc2)C(=O)c2ccccc21` [AC-1]: the Solubility in data set [1] amounted to 3 % by weight. The “Solubility/THF [% by weight]” value in data set [1] (Table 1), in data set [1] (Table 2), in data set [1] (Table 4) and in data set [1] (Table 6) was 3 % by weight in each case. The “Solubility/THF [% by weight] of organic acceptor” value in data set [1] (Table 3) and in data set [1] (Table 5) was 3 % by weight in each case. The “Reduction potential [V] of organic acceptor” value in data set [2] (Table 3) and in data set [2] (Table 5) was −0.95 V throughout. Further, the “Reduction potential [V]” value in data set [2] (Table 1) and in data set [2] (Table 2) was −0.95 V throughout. The Redox potential in data set [2] (Table 4) and in data set [2] (Table 6) was −0.95 throughout. Besides, in data set [2], the “Reduction Potential” value is listed as −0.95 V.

In turn, `O=C1c2ccc3c4c(ccc(c24)C(=O)N1C1CCCCC1)C(=O)N(C1CCCCC1)C3=O` [AC-3] gave a Solubility in data set [1] of 1 % by weight. Besides, the “Solubility/THF [% by weight]” value in data set [1] (Table 1) and in data set [1] (Table 2) was 1 % by weight throughout. Further, the “Solubility/THF [% by weight] of organic acceptor” value in data set [1] (Table 3) and in data set [1] (Table 5) was 1 % by weight each time. In addition, the “Reduction potential [V] of organic acceptor” value in data set [2] (Table 3) and in data set [2] (Table 5) was −0.85 V each time. Moreover, the “Reduction potential [V]” value in data set [2] (Table 1) and in data set [2] (Table 2) was −0.85 V in each case. In addition, the “Reduction Potential” value in data set [2] was −0.85 V.

Take `Cc1ccc(C(=O)c2ccc(C)cc2)cc1` [AC-8, reference compound]: the Solubility in data set [1] is on record as 11 % by weight. Besides, the “Solubility/THF [% by weight]” value in data set [1] (Table 4) and in data set [1] (Table 6) was 11 % by weight throughout. The Redox potential in data set [2] (Table 4) and in data set [2] (Table 6) was −1.31 in each case. Also, in data set [2], the “Reduction Potential” value is −1.31 V.

Regarding `O=C1NC(=O)c2ccccc21` [AC-4], the Solubility in data set [1] turned out to be 3 % by weight. Besides, the “Solubility/THF [% by weight]” value in data set [1] (Table 1) and in data set [1] (Table 2) was 3 % by weight in each case. Also, the “Solubility/THF [% by weight] of organic acceptor” value in data set [1] (Table 3) and in data set [1] (Table 5) was 3 % by weight throughout. Further, the “Reduction potential [V] of organic acceptor” value in data set [2] (Table 3) and in data set [2] (Table 5) was −1.28 V throughout. Further, the “Reduction potential [V]” value in data set [2] (Table 1) and in data set [2] (Table 2) was −1.28 V throughout. Moreover, in data set [2], the “Reduction Potential” value was −1.28 V.

In the case of `CC(C)(C)C1=CC(=C2C=C(C(C)(C)C)C(=O)C(C(C)(C)C)=C2)C=C(C(C)(C)C)C1=O` [AC-2], in data set [1], the Solubility is on record as 3 % by weight. Also, the “Solubility/THF [% by weight]” value in data set [1] (Table 1) and in data set [1] (Table 2) was 3 % by weight throughout. Besides, the “Solubility/THF [% by weight] of organic acceptor” value in data set [1] (Table 3) and in data set [1] (Table 5) was 3 % by weight in each case. Besides, the “Reduction potential [V] of organic acceptor” value in data set [2] (Table 3) and in data set [2] (Table 5) was −0.85 V each time. Further, the “Reduction potential [V]” value in data set [2] (Table 1) and in data set [2] (Table 2) was −0.85 V in each case. In data set [2], the “Reduction Potential” value is listed as −0.85 V.

Turning to `O=C(c1ccccc1)c1ccccc1` [AC-6, reference compound], the Redox potential in data set [2] (Table 4) and in data set [2] (Table 6) was −1.32 each time. Also, the “Reduction Potential” value in data set [2] is listed as −1.32 V.

These data come from US6391505B1, “Phthalocyanine crystal and its production, and electrophotosensitive material using the same” (Kyocera Mita Corporation, priority 1999, dated 2002).
